For one series, the system named is 4T1. Briefly: Antiproliferative activity against mouse 4T1 cells assessed as reduction in cell viability incubated for 2 days by MTT assay. The format is functional, cell-based. As to conditions: 4T1, 48 h. Background: Formazan colour is commonly taken as a measure of viable cells.
The next series relates to MCF7. As to the kind of experiment: Antiproliferative activity against human MCF7 cells assessed as reduction in cell viability incubated for 2 days by MTT assay. The series is classed as functional, cell-based. As to conditions: MCF7, 48 h.
The test system of the next series is MDA-MB-231. Briefly: Antiproliferative activity against human MDA-MB-231 cells assessed as reduction in cell viability incubated for 2 days by MTT assay. The format is functional, cell-based. The note with it: MDA-MB-231, 48 h.
The target in series [1] is T1, Far upstream element-binding protein 2 (Homo sapiens) (UniProt Q92945).
T1 sequence (whole entry): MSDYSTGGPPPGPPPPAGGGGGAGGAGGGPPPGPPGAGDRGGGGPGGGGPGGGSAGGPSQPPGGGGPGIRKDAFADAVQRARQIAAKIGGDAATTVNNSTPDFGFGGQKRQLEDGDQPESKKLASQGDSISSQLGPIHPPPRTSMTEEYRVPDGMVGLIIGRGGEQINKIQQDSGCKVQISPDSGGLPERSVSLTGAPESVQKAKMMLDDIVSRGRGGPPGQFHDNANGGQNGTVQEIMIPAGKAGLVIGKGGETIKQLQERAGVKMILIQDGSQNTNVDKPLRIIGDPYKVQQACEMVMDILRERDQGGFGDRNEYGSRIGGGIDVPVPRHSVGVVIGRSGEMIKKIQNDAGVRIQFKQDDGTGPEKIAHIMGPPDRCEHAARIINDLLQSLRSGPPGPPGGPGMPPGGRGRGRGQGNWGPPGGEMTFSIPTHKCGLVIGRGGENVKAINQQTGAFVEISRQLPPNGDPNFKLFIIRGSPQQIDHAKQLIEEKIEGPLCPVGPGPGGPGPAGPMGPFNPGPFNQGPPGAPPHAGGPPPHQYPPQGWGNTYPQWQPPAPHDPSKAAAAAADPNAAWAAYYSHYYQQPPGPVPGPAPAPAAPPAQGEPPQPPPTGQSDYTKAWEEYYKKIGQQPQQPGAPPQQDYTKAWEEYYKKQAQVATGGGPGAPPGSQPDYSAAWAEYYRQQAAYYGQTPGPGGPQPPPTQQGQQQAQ
Briefly: Binding affinity to recombinant full-length KSRP (unknown origin) by SPR analysis.

The target of series [2] is T2, Far upstream element-binding protein 2 (Homo sapiens, UniProt Q92945).
T2 sequence (Q92945 whole entry): T1 sequence (whole entry)
Briefly: Binding affinity to recombinant full-length KSRP (unknown origin) assessed as dissociation constant by SPR analysis. On the technique in general: Surface plasmon resonance follows binding to a sensor surface in real time, without labels.

A further series has as its system A549. As to the kind of experiment: Antiproliferative activity against human A549 cells assessed as reduction in cell viability incubated for 2 days by MTT assay. The series is classed as functional, cell-based. As to conditions: A549, 48 h.
For another series, the system named is KB. Briefly: Antiproliferative activity against human KB cells assessed as reduction in cell viability incubated for 2 days by MTT assay. The series is classed as functional, cell-based. As to conditions: 48 h.
The next series has as its system MIA PaCa-2. Briefly: Antiproliferative activity against human MIA PaCa-2 cells assessed as reduction in cell viability incubated for 2 days by MTT assay. The format is functional, cell-based. The note with it: MIA PaCa-2, 48 h.
The next series deals with U-87 MG. Briefly: Antiproliferative activity against human U-87 MG cells assessed as reduction in cell viability incubated for 2 days by MTT assay. As to conditions: 48 h. The format is functional, cell-based, U-87MG ATCC.
In another series the test system is HCT-116. Briefly: Antiproliferative activity against human HCT-116 cells assessed as reduction in cell viability incubated for 2 days by MTT assay. The series is classed as functional, cell-based. The note with it: HCT-116, 48 h.
In the next series the test system is NCI-H460. Briefly: Antiproliferative activity against human NCI-H460 cells assessed as reduction in cell viability incubated for 2 days by MTT assay. The note with it: NCI-H460, 48 h. The series is classed as functional, cell-based.
Series [3] is described as follows: Cytotoxicity against human L02 cells assessed as reduction in cell viability incubated for 2 days by MTT assay. The format is toxicity, cell-based.
The target of series [4] is T1, Far upstream element-binding protein 2 (Homo sapiens). As to the kind of experiment: Binding affinity to full-length KSRP (1 to 715 residues) (unknown origin) extracted from Escherichia coli incubated overnight by SDS-PAGE based immunoblot analysis. For orientation: In western blotting, separated proteins are transferred to a membrane and probed.
Series [5] shares this target. Briefly: Binding affinity to full length KSRP (unknown origin) incubated overnight by SDS-PAGE based immunoblot analysis.
For series [6] the target is unchanged. As to the kind of experiment: Binding affinity to KSRP KH23 domain (214 to 413 residues) (unknown origin) extracted from Escherichia coli incubated overnight by SDS-PAGE based immunoblot analysis.

Calls of active or inactive are those of the source. The rule behind the calls is not given here.

As a reminder, the IC50 is the concentration that inhibits the measured activity by half. By Kd is commonly meant the equilibrium constant for the complex coming apart. Take `COCC(C)NS(=O)(=O)c1ccc(-n2ncc(Cl)c(Cl)c2=O)cc1` (configuration not stated): the IC50 in the series on 4T1 came to 4040 nM; with MCF7 it was 8170 nM; in the series on MDA-MB-231 it was 16100 nM. The Activity entry in series [1] is “Dose-Dependent Effect”. Also, the Kd in series [2] was determined as 38300 nM.

`CN(CCOS(C)(=O)=O)S(=O)(=O)c1ccc(-n2ncc(Cl)c(Cl)c2=O)cc1`: the IC50 is 2100 nM with 4T1; 1960 nM in the series on A549; 380 nM in the series with KB; 390 nM in the series on MIA PaCa-2; 320 nM in the series on U-87 MG; 5180 nM with MCF7. For the same compound, the IC50 in the series with HCT-116 was 730 nM; with MDA-MB-231 it was 16000 nM; in the series on NCI-H460, 660 nM. For the same compound, in series [3], the IC50 at 2 days turned out to be 4240 nM.

`CCN(C)S(=O)(=O)c1ccc(-n2ncc(Cl)c(Cl)c2=O)cc1`: the IC50 in the series on 4T1 was 11400 nM; in the series on MCF7 it was 4100 nM; in the series on MDA-MB-231 it was more than 50000 nM.

Turning to `CC(CO)NS(=O)(=O)c1ccc(-n2ncc(Cl)c(Cl)c2=O)cc1` (configuration not stated), the 50% inhibitory concentration (IC50) with 4T1 is 1820 nM; with A549 it was 2070 nM; in the series with KB, 500 nM; with MIA PaCa-2, 440 nM; in the series with U-87 MG, 580 nM; with MCF7 it was 4450 nM. Moreover, the IC50 with HCT-116 was determined as 870 nM; with MDA-MB-231, 7570 nM; in the series on NCI-H460 it was 1020 nM. The IC50 at 2 days in series [3] amounted to 4660 nM.

For `NCCCCNS(=O)(=O)c1ccc(-n2ncc(Cl)c(Cl)c2=O)cc1`, the half-maximal inhibitory concentration (IC50) in the series on 4T1 is more than 10000 nM; in the series on MCF7, more than 20000 nM; with MDA-MB-231, more than 50000 nM.

`O=c1c(Cl)c(Cl)cnn1-c1ccc(S(=O)(=O)NCCCN2CCCC2)cc1`: the IC50 was 1450 nM with 4T1; 1800 nM in the series with A549; 580 nM with KB; 870 nM in the series on MIA PaCa-2; 700 nM in the series on U-87 MG; 4430 nM in the series on MCF7. The IC50 in the series on HCT-116 was found to be 990 nM; in the series on MDA-MB-231, 9110 nM; with NCI-H460 it was 1940 nM. Moreover, the IC50 at 2 days in [3] is 8150 nM.

On to `CCN(CCOCCNC(=O)OC(C)(C)C)S(=O)(=O)c1ccc(-n2ncc(Cl)c(Cl)c2=O)cc1`, for which the values for the 50% inhibitory concentration (IC50) with 4T1, with MCF7 and in the series on MDA-MB-231 were more than 10000 nM, more than 20000 nM and 27200 nM, respectively.

In the case of `COCC(C)NS(=O)(=O)c1ccc(-n2ncc(NCCCCCNC(=O)CCCC[C@@H]3SC[C@@H]4NC(=O)N[C@@H]43)c(Cl)c2=O)cc1` (some centres not stated), the IC50 with KB and in the series with MIA PaCa-2 was more than 50000 nM throughout.

`CCN(CCOC)S(=O)(=O)c1ccc(-n2ncc(Cl)c(Cl)c2=O)cc1`: the values for the IC50 with 4T1, in the series on MCF7 and in the series on MDA-MB-231 were 1800 nM, more than 10000 nM and more than 10000 nM, respectively.

For `CN(CCN(C)S(=O)(=O)c1ccc(-n2ncc(Cl)c(Cl)c2=O)cc1)S(=O)(=O)c1ccc(-n2ncc(Cl)c(Cl)c2=O)cc1`, the 50% inhibitory concentration (IC50) was more than 10000 nM in the series with 4T1, more than 20000 nM with MCF7 and more than 50000 nM in the series with MDA-MB-231.

On to `CCN(CCCN1CCCC1)S(=O)(=O)c1ccc(-n2ncc(OC)c(Cl)c2=O)cc1`, for which the IC50 in the series with 4T1, in the series with MCF7 and with MDA-MB-231 was more than 20000 nM in each case.

With `CNCCOc1cnn(-c2ccc(S(=O)(=O)N(C)CCOS(C)(=O)=O)cc2)c(=O)c1Cl`, the concentration for half-maximal inhibition (IC50) in the series with 4T1 is more than 10000 nM; in the series on MCF7, more than 20000 nM; in the series with MDA-MB-231, more than 50000 nM.

With `COCCNS(=O)(=O)c1ccc(-n2ncc(Cl)c(Cl)c2=O)cc1`, the IC50 with 4T1 turned out to be 1720 nM; in the series on A549, 1260 nM; with KB, 470 nM; in the series with MIA PaCa-2, 390 nM; with U-87 MG it was 580 nM; with MCF7, 4960 nM. For the same compound, the concentration for half-maximal inhibition (IC50) was 470 nM in the series with HCT-116, 6080 nM in the series on MDA-MB-231 and 1040 nM in the series with NCI-H460. Also, the IC50 at 2 days in series [3] was determined as 4070 nM.

As for `CC(C)C(CO)NS(=O)(=O)c1ccc(-n2ncc(Cl)c(Cl)c2=O)cc1` (configuration not stated), the IC50 stood at 1450 nM in the series on 4T1; 1270 nM in the series on A549; 350 nM in the series on KB; 420 nM in the series on MIA PaCa-2; 360 nM in the series with U-87 MG; 5180 nM in the series with MCF7. Besides, the IC50 came to 360 nM in the series on HCT-116, 14300 nM in the series on MDA-MB-231 and 740 nM with NCI-H460. Further, in series [3], the IC50 at 2 days is 3640 nM.

As to `O=C(CCCC[C@@H]1SC[C@@H]2NC(=O)N[C@@H]21)NCCCCNS(=O)(=O)c1ccc(-n2ncc(Cl)c(Cl)c2=O)cc1`, the result in [4], in series [5] and in series [6] was Active. The IC50 in the series with 4T1 stood at 2150 nM; in the series on KB, 6770 nM; in the series on MIA PaCa-2 it was 3220 nM; with MCF7, 8280 nM; in the series with MDA-MB-231 it was 2550 nM. Also, the Kd in series [2] amounted to 17700 nM.

The values are drawn from ChEMBL document CHEMBL6127035, “Novel pyridazinone derivatives bind to KSRP: Synthesis, anti-tumor biological evaluations and modelling insights” (Eur J Med Chem, 2024).
